Data on 20 compounds can be found in patent publication US20050164951A1, “Inhibitors for the soluble epoxide hydrolase” (The Regents of the University of California, priority 2003, published 2005).

For one assay, the target named is T1, human sEH (Homo sapiens, UniProt P34913).
T1 construct: made in house; host or cells: baculovirus expression system
T1 sequence (P34913 1-555): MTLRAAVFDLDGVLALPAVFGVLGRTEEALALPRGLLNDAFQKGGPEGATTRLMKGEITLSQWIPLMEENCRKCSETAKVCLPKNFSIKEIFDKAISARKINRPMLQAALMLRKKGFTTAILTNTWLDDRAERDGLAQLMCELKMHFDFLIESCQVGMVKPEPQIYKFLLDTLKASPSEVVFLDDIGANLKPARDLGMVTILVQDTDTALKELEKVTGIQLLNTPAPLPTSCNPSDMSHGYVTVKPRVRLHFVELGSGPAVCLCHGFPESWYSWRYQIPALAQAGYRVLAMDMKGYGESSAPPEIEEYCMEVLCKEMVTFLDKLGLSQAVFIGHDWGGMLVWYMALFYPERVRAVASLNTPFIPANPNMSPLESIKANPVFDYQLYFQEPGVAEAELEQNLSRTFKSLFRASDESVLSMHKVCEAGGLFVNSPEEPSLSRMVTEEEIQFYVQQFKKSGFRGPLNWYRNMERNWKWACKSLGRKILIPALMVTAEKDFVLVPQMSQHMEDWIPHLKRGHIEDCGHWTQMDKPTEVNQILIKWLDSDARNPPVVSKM
Kind of assay: Inhibition of recombinant human sEH, IC50 assay with 4-nitrophenyl-trans-2,3-epoxy-3-phenylpropyl carbonate as substrate. The format is biochemical. Conditions: for IC90: 0.24 μM enzyme. The method, then: (§1) Assays were performed in triplicate. […] The curve was generated from at least three separate runs, each in triplicate, to obtain the standard deviation (SD) given in Table 1 thru Table 4.

The next assay addresses T2, mouse sEH (Mus musculus, UniProt P34914).
T2 construct: made in house; host or cells: baculovirus expression system
T2 sequence (P34914 1-554): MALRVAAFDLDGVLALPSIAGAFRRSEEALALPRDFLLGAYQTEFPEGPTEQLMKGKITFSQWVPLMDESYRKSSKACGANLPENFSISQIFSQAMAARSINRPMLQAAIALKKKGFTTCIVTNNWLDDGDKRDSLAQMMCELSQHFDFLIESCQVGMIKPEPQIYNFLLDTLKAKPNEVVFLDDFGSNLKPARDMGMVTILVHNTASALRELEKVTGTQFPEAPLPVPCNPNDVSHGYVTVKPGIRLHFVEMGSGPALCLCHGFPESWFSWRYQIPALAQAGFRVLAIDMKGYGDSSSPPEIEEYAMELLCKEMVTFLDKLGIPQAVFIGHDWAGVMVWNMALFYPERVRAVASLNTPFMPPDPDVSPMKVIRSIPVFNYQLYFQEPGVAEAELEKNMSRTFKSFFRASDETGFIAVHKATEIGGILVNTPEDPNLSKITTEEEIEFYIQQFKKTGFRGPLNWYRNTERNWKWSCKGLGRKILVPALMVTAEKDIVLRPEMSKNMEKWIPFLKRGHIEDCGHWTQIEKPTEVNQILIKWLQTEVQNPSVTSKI
The assay can be described thus: Inhibition of recombinant mouse sEH, IC50 assay with 4-nitrophenyl-trans-2,3-epoxy-3-phenylpropyl carbonate as substrate. In kind it is biochemical. The method, then: as §1

Where [1] appears, read: Tables 17a and b, read-out: IC50 (μM) Human sEH.
[2] abbreviates: Tables 17a and b, read-out: IC50 (μM) Mouse sEH.
[3] abbreviates: Table 1, […] enzyme, 5 min preincubation, pH 7.4, 30° C., [S] = 40 μM, means ± SD of three experiments, read-out: IC50 (μM) Human sEH.
Setting [4] is: Table 1, […] enzyme, 5 min preincubation, pH 7.4, 30° C., [S] = 40 μM, means ± SD of three experiments, read-out: IC50 (μM) Mouse sEH.
The mark [5] stands for this setting: Table 5, 5 min preincubation, pH 7.4, 30° C., means ± SD.
[6] abbreviates: Table 5, […] enzyme, 5 min preincubation, pH 7.4, 30° C., means ± SD, read-out: Human sEH IC50.
Where [7] appears, read: Table 5, 0.12 μM enzyme, 5 min preincubation, pH 7.4, 30° C., means ± SD.
Where [8] appears, read: Table 5, […] enzyme, 5 min preincubation, pH 7.4, 30° C., means ± SD, read-out: Mouse sEH IC50.

Where two headings read alike, the source gives them in different places.

Regarding `CCCCC(CO)NC(=O)NC1CCCCC1` (stereo not drawn) [Compound 977], the figures for the IC50 on human sEH (setting [1]) and on mouse sEH (setting [2]) were 0.25 ± 0.01 µM and 0.1 ± 0.01 µM, respectively.

On to `O=C(O)CCNC(=O)NC1CCCCC1` [Compound 109], for which the IC50 (in general, the concentration that gives 50% inhibition) turned out to be 358 ± 2 µM at human sEH (setting [3]) and 122 ± 2 µM at mouse sEH (setting [4]).

On to `COC(=O)CCNC(=O)NC1CCCCC1` [Compound 635], for which the IC50 was determined as 78 ± 4 µM on human sEH (setting [3]) and 2.5 ± 0.1 µM at mouse sEH (setting [4]).

Take `O=C(Cc1cccc(Cl)c1)NC1CCCCC1` [Compound 969]: the IC50 at human sEH (setting [1]) amounted to 38 ± 0.01 µM; at mouse sEH (setting [2]) it was 0.56 ± 0.01 µM.

Consider `O=C(NCCCCCCCCCCCC(=O)OCc1ccccc1)NC12CC3CC(CC(C3)C1)C2` [Compound 804, 1-(1-Adamantyl)-3-(11-benzyloxycarbonylundecyl)urea], for which the IC50 is 0.13 ± 0.01 µM at human sEH (Table 4, […] enzyme, 5 min preincubation, pH 7.4, 30° C., means ± SD, read-out: IC50 (μM) Human sEH) and 0.07 ± 0.01 µM on mouse sEH (Table 4, 0.12 μM enzyme, 5 min preincubation, pH 7.4, 30° C., means ± SD, read-out: IC50 (μM) Mouse sEH).

In the case of `O=C(O)CCCCCNC(=O)NC1CCCCC1` [Compound 56], the IC50 turned out to be 253 ± 8 µM at human sEH (setting [3]) and 90 ± 3 µM on mouse sEH (Table 1, 0.12 μM enzyme, 5 min preincubation, pH 7.4, 30° C., [S] = 40 μM, means ± SD of three experiments, read-out: IC50 (μM) Mouse sEH).

With `CS(=O)(=O)NCCCCCCCCCCCCNC(=O)NC12CC3CC(CC(C3)C1)C2` [Compound 901], the IC50 came to 0.1 ± 0.01 µM at human sEH (setting [1]) and 0.07 ± 0.01 µM at mouse sEH (setting [2]).

With `O=C(CC1CCCCC1)Nc1ccccc1` [Compound 964], the IC50 was 16 ± 0.01 µM at human sEH (setting [1]) and 3.7 ± 0.01 µM on mouse sEH (setting [2]).

For `O=C(NCCCCCCCCCCCn1ccnc1)NC12CC3CC(CC(C3)C1)C2` [Compound 997], the IC50 was determined as 63 ± 0.01 µM on human sEH (setting [1]) and 2.3 ± 0.01 µM on mouse sEH (setting [2]).

With `CCOC(=O)CCCOC(=O)CCCNC(=O)NC12CC3CC(CC(C3)C1)C2` [Compound 858], the figures for the IC90 at human sEH (setting [5]) and on mouse sEH (setting [7]) were 5 ± 0.1 µM and 0.16 ± 0.01 µM, respectively. Moreover, the IC50 at human sEH (setting [6]) came to 0.12 ± 0.01 µM; at mouse sEH (setting [8]), 0.05 ± 0.01 µM.

As for `O=C(NN1CCOCC1)NC12CC3CC(CC(C3)C1)C2` [Compound 1015], the figures for the IC50 at human sEH (setting [1]) and at mouse sEH (setting [2]) were 8.7 ± 0.01 µM and 1.3 ± 0.01 µM, respectively.

Take `CCCC(C)COCCOCCOCCCCCNC(=O)NC12CC3CC(CC(C3)C1)C2` (stereo not drawn) [Compound 1003]: the IC50 on human sEH (Table 7, established protocols, read-out: IC50 (μM) Human sEH) was determined as 0.13 ± 0.01 µM; at human sEH (setting [1]) it was 0.13 ± 0.01 µM; at mouse sEH (Table 7, established protocols, read-out: IC50 (μM) Mouse sEH) it was 0.05 ± 0.01 µM; at mouse sEH (setting [2]) it was 0.05 ± 0.01 µM.

`CC(C)=CCCC(C)CCOCCCCCNC(=O)NC12CC3CC(CC(C3)C1)C2` (stereo not drawn) [Compound 915]: the IC50 amounted to 0.12 ± 0.01 µM at human sEH (setting [1]) and 0.05 ± 0.01 µM at mouse sEH (setting [2]).

Turning to `O=C(O)CCCNC(=O)NC1CCCCC1` [Compound 632, 4-(3-Cyclohexyl-ureido)-butyric acid], the IC50 on human sEH (setting [3]) and on mouse sEH was above 500 µM throughout.

`O=C(CCCc1ccccc1)NC1CCCCC1` [Compound 971]: the IC50 on human sEH (setting [1]) is 1.4 ± 0.01 µM; at mouse sEH (setting [2]) it was 0.11 ± 0.01 µM.

`CCOC(=O)CCCCCCCOC(=O)CCCNC(=O)NC12CC3CC(CC(C3)C1)C2` [Compound 879]: the figures for the IC90 at human sEH (setting [5]) and on mouse sEH (setting [7]) were 0.72 ± 0.01 µM and 0.16 ± 0.02 µM, respectively. In addition, the IC50 came out at 0.11 ± 0.01 µM on human sEH (setting [6]) and 0.05 ± 0.01 µM at mouse sEH (setting [8]).

On to `C#CCCCCCCNC(=O)NC12CC3CC(CC(C3)C1)C2` [Compound 900], for which the figures for the IC50 at human sEH (setting [1]) and on mouse sEH (setting [2]) were 0.1 ± 0.01 µM and 0.05 ± 0.01 µM, respectively.

`CC(C)c1cccc2c(S(=O)(=O)NCCCOCCCCCNC(=O)NC34CC5CC(CC(C5)C3)C4)cccc12` [Compound 986]: the results for the IC50 on human sEH (setting [1]) and on mouse sEH (setting [2]) were 0.29 ± 0.01 µM and 0.05 ± 0.01 µM, respectively.

With `CCOC(=O)CCCCCCOC(=O)CCCNC(=O)NC12CC3CC(CC(C3)C1)C2` [Compound 878], the figures for the IC90 at human sEH (setting [5]) and on mouse sEH (setting [7]) were 0.81 ± 0.01 µM and 0.13 ± 0.01 µM, respectively. Moreover, the IC50 worked out at 0.12 ± 0.01 µM on human sEH (setting [6]) and 0.05 ± 0.01 µM on mouse sEH (setting [8]).

`CCCCC(CC)OC(=O)C1CCCC(NC(=O)NC23CC4CC(CC(C4)C2)C3)C1` (stereo not drawn) [Compound 904]: the IC50 came to 0.1 ± 0.01 µM on human sEH (read-out: IC50 (μM) Human sEH) and 0.05 ± 0.01 µM at mouse sEH (Table 9, established protocols, read-out: IC50 (μM) Mouse sEH).
